Results published in patent US12157730B2, “Heteroaryl derivative, method for producing same, and pharmaceutical composition comprising same as effective component” (VORONOI INC., priority 2019, dated 2024).

Molecular target: T1, Ba/F3 cell EGFR Exon20 ins NPH (Homo sapiens, UniProt P00533, INS773NPH)
T1 construct: expressed in transfected cells; host or cells: Ba/F3
Experiment: Ba/F3 cell proliferation suppression, EGFR Exon20 ins NPH
Type: cell-based
Conditions: GI50 class; Ba/F3 cell line with NPH inserted at Exon20 of EGFR; 72 hours
In short: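 After 72 h compound exposure (twelve 3-fold steps, 0.3 nM–50 um final), live cells were measured by CellTiter-Glo luminescence and growth expressed as % of control to derive GI50. Cells were seeded at 3000–5000 per well a day earlier; Ba/F3 medium contained IL-3; three repeats.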

Ba/F3 (NPH) Activity | Structure (SMILES)
A (GI50 < 50 nM) | C=CC(=O)Nc1cc(Nc2cc(N3OCC[C@@H]3c3ccc(F)c(Cl)c3F)ncn2)c(OC)cc1N1CCC(N2CCN(C)CC2)CC1 [compound 605, N-(5-((6-((R)-3-(3-chloro-2,4-difluorophenyl)isoxazolidine-2-yl)pyrimidine-4-yl)amino)-4-methoxy-2-(4-(4-methylpiperazine-1-yl)piperidine-1-yl)phenyl) acrylamide]
A (GI50 < 50 nM) | C=CC(=O)Nc1cc(Nc2cc(N3OCC[C@@H]3c3ccc(Cl)c(Cl)c3)ncn2)c(OC)cc1N1C[C@@H]2C[C@H]1CO2 [compound 612, N-(2-((1S,4S)-2-oxa-5-azabicyclo[2.2.1]heptane-5-yl)-5-((6-((R)-3-(3,4-dichlorophenyl)isoxazolidine-2-yl)pyrimidine-4-l)amino)-4-methoxyphenyl) acrylamide]
B (50 nM ≤ GI50 < 500 nM) | C=CC(=O)Nc1cc(Nc2cc(N3OCC[C@@H]3c3ccc(F)c(Cl)c3F)ncn2)c(OC)cc1N1CCC(N2CCN(C(C)C)CC2)CC1 [compound 668, N-(5-((6-((R)-3-(3-chloro-2,4-difluorophenyl)isoxazolidine-2-yl)pyrimidine-4-yl)amino)-2-(4-(4-isopropylpiperazine-1-yl)piperidine-1-yl)-4-methoxyphenyl) acrylamide]
B (50 nM ≤ GI50 < 500 nM) | C=CC(=O)Nc1cc(Nc2cc(N3OCC[C@H]3Cc3ccccc3)ncn2)c(OC)cc1N(C)CCN(C)C [compound 973, N-(5-((6-((R)-3-benzylisoxazolidine-2-yl)pyrimidine-4-yl)amino)-2-((2-(dimethylamino)ethyl) (methyl)amino)-4-methoxyphenyl) acrylamide]
A (GI50 < 50 nM) | C=CC(=O)Nc1cc(Nc2cc(N3OCC[C@@H]3c3cccc(F)c3F)ncn2)c(OC)cc1N1CCC(N2CCN(C)[C@@H](C)C2)CC1 [compound 335, N-(5-((6-((R)-3-(2,3-difluorophenyl)isoxazolidine-2-yl)pyrimidine-4-yl)amino)-2-(4-((S)-3,4-dimethylpiperazine-1-yl)piperidine-1-yl)-4-methoxyphenyl) acrylamide]
A (GI50 < 50 nM) | C=CC(=O)Nc1cc(Nc2cc(N3OCC[C@@H]3c3cccc(F)c3F)ncn2)c(OC)cc1N1CCN(C)CC1 [compound 925, N-(5-((6-((R)-3-(2,3-difluorophenyl)isoxazolidine-2-yl)pyrimidine-4-yl)amino)-4-methoxy-2-(4-methylpiperazine-1-yl)phenyl)acrylamide]
B (50 nM ≤ GI50 < 500 nM) | C=CC(=O)Nc1cc(Nc2cc(N3OCC[C@@H]3c3ccc4ccccc4c3)ncn2)c(OC)cc1N1CCC(N2CCN(C(C)C)CC2)CC1 [compound 550, N-(2-(4-(4-isopropylpiperazine-1-yl)piperidine-1-yl)-4-methoxy-5-((6-((R)-3-(naphthalene-2-yl)isoxazolidine-2-yl)pyrimidine-4-yl)amino)phenyl)acrylamide]
A (GI50 < 50 nM) | C=CC(=O)Nc1cc(Nc2cc(N3OCC[C@@H]3c3cccc(F)c3)ncn2)c(OC)cc1N1CCC(N2CCOCC2)CC1 [Example 38, N-(5-((6-((R)-3-(3-fluorophenyl)isoxazolidine-2-yl)pyrimidine-4-yl)amino)-4-methoxy-2-(4-morpholinopiperidine-1-yl)phenyl) acrylamide]
B (50 nM ≤ GI50 < 500 nM) | C=CC(=O)Nc1cc(Nc2cc(N3OCC[C@@H]3c3cccc(F)c3)ncn2)c(OC)cc1-n1ccnc1C [compound 861, N-(5-((6-((R)-3-(3-fluorophenyl)isoxazolidine-2-yl)pyrimidine-4-yl)amino)-4-methoxy-2-(2-methyl-1H-imidazole-1-yl)phenyl)acrylamide]
A (GI50 < 50 nM) | C=CC(=O)Nc1cc(Nc2cc(N3OCC[C@@H]3c3cc(F)cc(F)c3)ncn2)c(OC)cc1N1CCC(N2CCN(CCN(C)C)CC2)CC1 [compound 753, N-(5-((6-((R)-3-(3,5-difluorophenyl)isoxazolidine-2-yl)pyrimidine-4-yl)amino)-2-(4-(4-(2-(dimethylamino)ethyl)piperazine-1-yl)piperidine-1-yl)-4-methoxyphenyl) acrylamide]
A (GI50 < 50 nM) | C=CC(=O)Nc1cc(Nc2cc(N3OCC[C@@H]3c3cccc(Cl)c3F)ncn2)c(OC)cc1N1CCC(N2CCN(CC)CC2)CC1 [compound 913, N-(5-((6-((R)-3-(3-chloro-2-fluorophenyl)isoxazolidine-2-yl)pyrimidine-4-yl)amino)-2-(4-(4-ethylpiperazine-1-yl)piperidine-1-yl)-4-methoxyphenyl) acrylamide]
A (GI50 < 50 nM) | C=CC(=O)Nc1cc(Nc2cc(N3OCC[C@@H]3c3cccc(C(F)(F)F)c3)ncn2)c(OC)cc1N1CC[C@@H](N(C)C)C1 [compound 505, N-(2-((R)-3-(dimethylamino)pyrolidine-1-yl)-4-methoxy-5-((6-((R)-3-(3-(trifluoromethyl)phenyl)isoxazolidine-2-yl)pyrimidine-4-yl)amino)phenyl)acrylamide]
C (500 nM ≤ GI50 < 5000 nM) | C=CC(=O)Nc1cc(Nc2cc(N3OCC[C@H]3c3c(F)cccc3F)ncn2)c(OC)cc1N1C[C@@H]2CCN(C)[C@@H]2C1 [compound 899, N-(5-((6-((S)-3-(2,6-difluorophenyl)isoxazolidine-2-yl)pyrimidine-4-yl)amino)-4-methoxy-2-((3aS,6aS)-1-methylhexahydropyrrolo [3,4-b]pyrrole-5(1H)-yl)phenyl) acrylamide]
A (GI50 < 50 nM) | C=CC(=O)Nc1cc(Nc2cc(N3OCC[C@@H]3c3ccc(Cl)c(Cl)c3)ncn2)c(OC)cc1N1C[C@H]2C[C@@H]1CN2CC [compound 676, N-(5-((6-((R)-3-(3,4-dichlorophenyl)isoxazolidine-2-yl)pyrimidine-4-yl)amino)-2-((1R,4R)-5-ethyl-2,5-diazabicyclo[2.2.1]heptane-2-yl)-4-methoxyphenyl) acrylamide]
A (GI50 < 50 nM) | C=CC(=O)Nc1cc(Nc2cc(N3OCC[C@@H]3c3ccc(F)cc3F)ncn2)c(OC)cc1N1CCC(N2CCN(C3COC3)CC2)CC1 [Example 197, N-(5-((6-((R)-3-(2,4-difluorophenyl)isoxazolidine-2-yl)pyrimidine-4-yl)amino)-4-methoxy-2-(4-(4-(oxetane-3-yl)piperazine-1-yl)piperidine-1-yl)phenyl)acrylamide]
C (500 nM ≤ GI50 < 5000 nM) | C=CC(=O)Nc1cc(Nc2cc(N3OCC[C@H]3Cc3ccccc3)ncn2)c(OC)cc1N1CCOCC1 [compound 966, N-(5-((6-((R)-3-benzylisoxazolidine-2-yl)pyrimidine-4-yl)amino)-4-methoxy-2-morpholinophenyl) acrylamide]
A (GI50 < 50 nM) | C=CC(=O)Nc1cc(Nc2cc(N3OCC[C@@H]3c3cccc(F)c3)ncn2)c(OC)cc1N1CCN(C2CC2)CC1 [compound 830, N-(2-(4-cyclopropylpiperazine-1-yl)-5-((6-((R)-3-(3-fluorophenyl)isoxazolidine-2-yl)pyrimidine-4-yl)amino)-4-methoxyphenyl) acrylamide]
A (GI50 < 50 nM) | C=CC(=O)Nc1cc(Nc2cc(N3OCC[C@@H]3c3cccc(C)c3F)ncn2)c(OC)cc1N1CCOCC1 [compound 844, N-(5-((6-((R)-3-(2-fluoro-3-methylphenyl)isoxazolidine-2-yl)pyrimidine-4-yl)amino)-4-methoxy-2-morpholinophenyl) acrylamide]
A (GI50 < 50 nM) | C=CC(=O)Nc1cc(Nc2cc(N3OCC[C@@H]3c3ccc(F)c(Cl)c3)ncn2)c(OC)cc1N1CCC(N2C[C@H]3CC[C@@H](C2)O3)CC1 [compound 871, N-(2-(4-((1R,5S)-8-oxa-3-azabicyclo [3.2.1]octan-3-yl)piperidine-1-yl)-5-((6-((R)-3-(3-chloro-4-fluorophenyl)isoxazolidine-2-yl)pyrimidine-4-yl)amino)-4-methoxyphenyl) acrylamide]
C (500 nM ≤ GI50 < 5000 nM) | C=CC(=O)Nc1cc(Nc2cc(N3OCC[C@@H]3c3ccc(F)c(F)c3F)ncn2)c(OC)cc1N1CC[C@H](N2CCOCC2)C1 [compound 624, N-(4-methoxy-2-((S)-3-morpholinopyrolidine-1-yl)-5-((6-((R)-3-(2,3,4-trifluorophenyl)isoxazolidine-2-yl)pyrimidine-4-yl)amino)phenyl)acrylamide]
A (GI50 < 50 nM) | C=CC(=O)Nc1cc(Nc2cc(N3OCC[C@@H]3c3ccccc3)ncn2)c(OC)cc1N1CCN(C2COC2)CC1 [Example 18]
B (50 nM ≤ GI50 < 500 nM) | C=CC(=O)Nc1cc(Nc2cc(N3OCC[C@@H]3c3ccc4ccccc4c3)ncn2)c(OC)cc1N1CCC(N(C)C)CC1 [compound 510, N-(2-(4-(dimethylamino)piperidine-1-yl)-4-methoxy-5-((6-((R)-3-(naphthalene-2-yl)isoxazolidine-2-yl)pyrimidine-4-yl)amino)phenyl)acrylamide]
A (GI50 < 50 nM) | C=CC(=O)Nc1cc(Nc2cc(N3OCC[C@@H]3c3cccc(C)c3F)ncn2)c(OC)cc1N1CCN(C2CC2)CC1 [compound 909, N-(2-(4-cyclopropylpiperazine-1-yl)-5-((6-((R)-3-(2-fluoro-3-methylphenyl)isoxazolidine-2-yl)pyrimidine-4-yl)amino)-4-methoxyphenyl) acrylamide]
B (50 nM ≤ GI50 < 500 nM) | C=CC(=O)Nc1cc(Nc2cc(N3OCC[C@@H]3c3ccccc3)ncn2)c(OC)cc1N1C2CC1CN(C)C2 [Example 35, N-(4-methoxy-2-(3-methyl-3,6-diazabicyclo[3.1.1]heptane-6-yl)-5-((6-((R)-3-phenylisoxazolidine-2-yl)pyrimidine-4-yl)amino)phenyl) acrylamide]
